# Experiments:
# [1] = tested on: U46619-induced normoxic pulmonary hypertension; type: in vivo; details: 2 μg/kg/min i.v. for 30 minutes; before 24±1
# Procedure: This is a simple, inexpensive, and widely available clinical nebulizer system, though other systems could be used.
# Six additional lambs were studied in order to evaluate the effects of nitrite nebulization on normoxic pulmonary hypertension. Stable normoxic pulmonary hypertension was induced by an infusion of a stable endoperoxide analog of thromboxane (U46619-9,11-dideoxy-11α-epoxymethano-prostaglandin F2α, Cayman Chemicals, Ann Arbor, Mich.). The drug was dissolved in saline and was administered at a rate of 2 μg/kg/min into the femoral venous catheter for 30 minutes. Nitrite was nebulized for inhalation during the last 20 minutes of the infusion (FIG. 11).
# [2] = tested on: hepatic ischemia-reperfusion injury; experiment: Hepatic ischemia-reperfusion (I/R) injury; type: in vivo, mice
# Procedure: Carboxy-PTIO [2-(4-Carboxyphenyl)-4,4,5,5-tetramethylimidazoline-1-oxyl-3-oxide potassium salt], a direct intravascular NO scavenger, was utilized to inhibit NO dependent effects following hepatic I/R injury. Carboxy-PTIO (Alexis Biochemicals) was dissolved in phosphate buffered saline and administered intravenously at a dose of 1 mg/Kg in a volume of 50 μL at 30 minutes prior to hepatic ischemia Zinc(II) Deuteroporphyrin IX-2,4-bisethyleneglycol (ZnDBG) (Alexis Biochemicals), a heme oxygenase-1 inhibitor was injected i.p. at a dose of 10 mg/Kg in a volume of 50 μL at 30 minutes prior to the induction of hepatic ischemia.
# All of the mice utilized in the present studies were C57BL6/J at 8-10 weeks of age obtained from the Jackson Laboratories (Bar Harbor, Me.). In additional experiments of hepatic I/R injury we utilized mice completely deficient (−/−) in endothelial nitric oxide synthase (eNOS). eNOS−/− mice were originally generously donated from Dr. Paul Huang (Mass. General Hospital) and generated in our breeding colony at LSU-Health Sciences Center. eNOS−/− mice were utilized at 8-10 weeks of age.
# The hepatic I/R protocol is depicted in FIG. 6A and has been described previously (Hines et al., Biochem Biophys Res Commun 284:972-976, 2001; Hines et al., Am J Physiol Gastrointest Liver Physiol 284:G536-545, 2001). Mice were anesthetized with the combination of ketamine (100 mg/kg) and zylazine (8 mg/kg) and a midline laparotomy was performed to expose the liver. Mice were then injected with heparin (100 μg/kg, i.p.) to prevent blood clotting. The left lateral and median lobes of the liver were rendered ischemic by completely clamping the hepatic artery and the portal vein using microaneurysm clamps. This experimental model results in a segmental (70%) hepatic ischemia. This method of partial ischemia prevents mesenteric venous congestion by allowing portal decompression throughout the right and caudate lobes of the liver. The liver was then repositioned in the peritoneal cavity in its original location for 45 minutes. The liver was kept moist using gauze soaked in 0.9% normal saline. In addition, body temperature was maintained at 37° C. using a heat lamp and monitoring body temperature with a rectal temperature probe. Sham surgeries were identical except that hepatic blood flow was not reduced with a microaneurysm clamp. The duration of hepatic ischemia was 45 minutes in all experiments, following which the microaneurysm clamps were removed. The duration of hepatic reperfusion was 5 hours in the studies of serum liver transaminase levels (i.e., AST or ALT) and 24 hours for the studies of liver histopathology (such as hepatocellular infarction).
# Serum samples were analyzed for aspartate aminotransferase (AST) and alanine aminotransferase (ALT) using a spectrophotometric method (Sigma Chemical Co., St. Louis, Mo.) (Harada et al., Proc Natl Acad Sci USA 100:739-744, 2003). These enzymes are liver specific and are released from the liver during injury (Hines et al., Biochem Biophys Res Commun 284:972-976, 2001; Hines et al., Am J Physiol Gastrointest Liver Physiol 284:G536-545, 2001). […]
# forearm circulation = experiment: Sodium nitrite infusion into the brachial artery, forearm blood flow by venous-occlusion plethysmography; details: 8 μmol/min into brachial artery for 5 minutes
# Excerpt: The protocol was approved by the Institutional Review Board of the National Heart, Lung and Blood Institute, and informed consent was obtained from all volunteer subjects. […] An additional 10 subjects returned three-six months later for a second series of experiments with low dose nitrite infusion. […] No volunteer subject was allowed to take any medication (oral contraceptive agents allowed), vitamin supplements, herbal preparations, nutriceuticals or other “alternative therapies” for at least one month prior to study and were not be allowed to take aspirin for one week prior to study.
# Brachial artery and antecubital vein catheters were placed into the arm, with the intraarterial catheter connected to a pressure transducer for blood pressure measurements and an infusion pump delivering normal saline at 1 mL/min. After 20 minutes of rest, baseline arterial and venous blood samples were obtained and forearm blood flow measurements were made by strain gauge venous-occlusion plethysmography, as previously reported (Panza et al., Circulation, 87, 1468-74, 1993). A series of 7 blood flow measurements were averaged for each blood flow determination. A series of measurements termed Parts I and II were performed in randomized order to minimize a time effect on the forearm blood flow response during nitrite infusion.
# Part I: Following 20 minutes of 0.9% NaCl (saline) solution infusion at 1 mL/min into the brachial artery, arterial and venous blood samples were obtained for the assays described below and forearm blood flow measured. Exercise was performed by repetitive hand-grip at one-third of the predetermined maximum grip strength using a hand-grip dynamometer (Technical Products Co.) (Gladwin et al., Proc Natl Acad Sci USA, 97, 9943-8, 2000; Gladwin et al., Proc Natl Acad Sci USA, 97, 11482-11487, 2000; Cannon et al., J Clin Invest, 108, 279-87, 2001). Each contraction lasted for 10 seconds followed by relaxation for 5 seconds. Following 5 minutes of exercise, forearm blood flow measurements were obtained during relaxation phases of exercise, and arterial and venous samples collected. Following a 20-minute rest period with continued infusion of saline into the brachial artery, repeated baseline blood samples and forearm blood flow measurements were obtained. L-NMMA was then infused at a rate of 1 mL/min (8 μmol/min) into the brachial artery. Following 5 minutes of L-NMMA infusion, forearm blood flow was measured, and arterial and venous blood samples obtained. Forearm exercise was then initiated in that arm during continued L-NMMA infusion. Forearm blood flow was measured and blood samples obtained after 5 minutes of exercise during continued L-NMMA infusion (FIG. 1).
# Part II: After a 30 minute rest period with continued infusion of saline, baseline measurements were obtained, the saline infusion was then stopped, and infusion of nitrite (NaNO2 36 μmol/ml in 0.9% saline) at 1 ml/min was started. […] For the final 9 subjects studied, 0.01-0.03 mM sodium bicarbonate was added to the normal saline, so as to titrate pH to 7.0-7.4. The nitrite solution was light protected and nitrite levels and free NO gas in solution measured by reductive chemiluminescence after all experiments (Gladwin et al., J Biol Chem, 21, 21, 2002).
# [3] = tested on: hypoxic-induced pulmonary hypertension; experiment: Comparison of inhaled nitrite and NO gas during hypoxic-induced pulmonary vasoconstriction: efficacy and duration; type: in vivo, newborn lambs; details: hypoxia
# Excerpt: NO gas was introduced into the inspiratory limb of the breathing circuit. The inspired concentration of NO was continuously measured by chemiluminescence (CLD 700 AL, Eco Physics Inc, Ann Arbor, Mich.) in the inspiratory limb of the ventilator loop.
# efficacy and duration of effect. This protocol was designed to compare the efficacy of nitrite with the clinical standard, 20 ppm inhaled NO gas. […] A second purpose was to determine the duration of effect of a short nitrite nebulization versus NO gas inhalation on hemodynamic and physiological measurements during prolonged hypoxic-induced pulmonary vasoconstriction. After baseline measurements were performed, the lambs were made hypoxic as described above for 35 minutes. Ten minutes after initiation of hypoxia, a 20-minute period of NO gas inhalation was initiated (20 ppm), with continuation of hypoxia for 5 minutes after cessation of NO gas delivery. Lambs were then allowed to recover for one hour. Again, after baseline measurements were made, a second 90-minute period of hypoxia was initiated.
compound,measurement,setting,value
"CCCCCC(O)/C=C/C1C2CC(CO2)C1C/C=C\CCCC(=O)O (stereo not drawn) [U46619, 9,11-dideoxy-11α-epoxymethano-prostaglandin F2α]",pulmonary artery pressure during infusion,[1],51±4 mmHg
O=[N+]([O-])[O-].[Na+] [sodium nitrate],serum elevations of liver transaminases AST and ALT,"[2]; intraperitoneal during hepatic ischemia, 45 min ischemia, 5 h reperfusion, nitrite 1.2-480 nmoles, nitrate 48 nmoles",did not exert any protective effects
"CNC(=N)NCCC[C@H](N)C(=O)O [L-NMMA, L-NG-monomethyl-arginine]",reduction of forearm blood flow,forearm circulation,approximately 30%
"CC1(C)N([O])C(c2ccc(C(=O)[O-])cc2)=[N+]([O-])C1(C)C.[K+] [PTIO, 2-(4-Carboxyphenyl)-4,4,5,5-tetramethylimidazoline-1-oxyl-3-oxide potassium salt]",effect on nitrite protection (serum AST),"[2]; nitrite 24 μM + PTIO, full factorial design",completely inhibited protective effects of nitrite
"[N]=O [NO gas, nitric oxide]",loss of the vasodilating effect after termination of delivery,[3]; 20 ppm,in a matter of seconds
same,reduction (correction) of hypoxic-induced pulmonary hypertension,[3]; NO gas 20 ppm or nitrite aerosol for 20 minutes,about 80%

# Reference: patent publication US9700578B2, “Use of nitrite salts for the treatment of cardiovascular conditions” (The United States of America as represented by the …, priority 2003, dated 2017)
